According to patent US6458784B1, “Vitronectin receptor antagonists” (priority 1995, dated 2002):
Like-named read-outs stand apart in the source and are kept apart here.

What was measured:
[1] = target: T1, αvβ3 (vitronectin receptor) (Homo sapiens, UniProt P05106+P06756); test: Solid-phase [3H]-SK&F-107260 binding to αvβ3 (inhibition of vitronectin binding); details: for ratio* (enhanced binding to vitronectin receptor vs fibrinogen receptor = αIIbβ3/αVβ3): selectivity αIIbβ3/αVβ3
T1 construct: Human placenta or human platelet αvβ3 (0.1-0.3 mg/mL) in buffer T; from tissue; host or cells: human placenta or human platelets
T1 sequence (P06756 31-889 limits assumed): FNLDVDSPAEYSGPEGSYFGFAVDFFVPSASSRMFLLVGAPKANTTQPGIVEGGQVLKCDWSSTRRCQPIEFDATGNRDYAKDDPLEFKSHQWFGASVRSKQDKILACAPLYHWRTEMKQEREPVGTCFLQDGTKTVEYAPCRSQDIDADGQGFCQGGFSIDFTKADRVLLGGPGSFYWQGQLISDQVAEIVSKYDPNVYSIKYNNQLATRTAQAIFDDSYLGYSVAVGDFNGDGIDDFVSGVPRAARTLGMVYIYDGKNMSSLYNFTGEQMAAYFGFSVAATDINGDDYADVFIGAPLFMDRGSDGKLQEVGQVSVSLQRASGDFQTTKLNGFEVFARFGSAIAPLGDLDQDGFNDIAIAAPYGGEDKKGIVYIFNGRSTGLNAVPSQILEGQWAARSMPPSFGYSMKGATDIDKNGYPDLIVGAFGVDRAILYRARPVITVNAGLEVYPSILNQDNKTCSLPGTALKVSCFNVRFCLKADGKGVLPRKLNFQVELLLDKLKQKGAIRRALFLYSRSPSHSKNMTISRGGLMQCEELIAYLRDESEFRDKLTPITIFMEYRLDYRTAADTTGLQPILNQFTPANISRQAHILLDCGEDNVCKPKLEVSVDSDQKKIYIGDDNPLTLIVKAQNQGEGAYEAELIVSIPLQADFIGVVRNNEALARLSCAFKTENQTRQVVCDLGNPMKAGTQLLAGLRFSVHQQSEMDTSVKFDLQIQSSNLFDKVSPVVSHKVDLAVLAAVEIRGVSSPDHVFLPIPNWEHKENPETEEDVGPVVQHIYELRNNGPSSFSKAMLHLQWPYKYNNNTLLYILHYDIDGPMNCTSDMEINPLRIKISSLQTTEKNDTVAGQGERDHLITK
T1 sequence (P06756 891-1048 partner limits assumed): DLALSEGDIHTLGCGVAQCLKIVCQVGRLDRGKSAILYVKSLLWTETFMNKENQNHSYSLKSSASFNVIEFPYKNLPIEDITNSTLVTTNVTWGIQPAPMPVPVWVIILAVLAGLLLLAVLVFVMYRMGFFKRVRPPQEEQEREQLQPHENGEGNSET
T1 sequence (P05106 27-788): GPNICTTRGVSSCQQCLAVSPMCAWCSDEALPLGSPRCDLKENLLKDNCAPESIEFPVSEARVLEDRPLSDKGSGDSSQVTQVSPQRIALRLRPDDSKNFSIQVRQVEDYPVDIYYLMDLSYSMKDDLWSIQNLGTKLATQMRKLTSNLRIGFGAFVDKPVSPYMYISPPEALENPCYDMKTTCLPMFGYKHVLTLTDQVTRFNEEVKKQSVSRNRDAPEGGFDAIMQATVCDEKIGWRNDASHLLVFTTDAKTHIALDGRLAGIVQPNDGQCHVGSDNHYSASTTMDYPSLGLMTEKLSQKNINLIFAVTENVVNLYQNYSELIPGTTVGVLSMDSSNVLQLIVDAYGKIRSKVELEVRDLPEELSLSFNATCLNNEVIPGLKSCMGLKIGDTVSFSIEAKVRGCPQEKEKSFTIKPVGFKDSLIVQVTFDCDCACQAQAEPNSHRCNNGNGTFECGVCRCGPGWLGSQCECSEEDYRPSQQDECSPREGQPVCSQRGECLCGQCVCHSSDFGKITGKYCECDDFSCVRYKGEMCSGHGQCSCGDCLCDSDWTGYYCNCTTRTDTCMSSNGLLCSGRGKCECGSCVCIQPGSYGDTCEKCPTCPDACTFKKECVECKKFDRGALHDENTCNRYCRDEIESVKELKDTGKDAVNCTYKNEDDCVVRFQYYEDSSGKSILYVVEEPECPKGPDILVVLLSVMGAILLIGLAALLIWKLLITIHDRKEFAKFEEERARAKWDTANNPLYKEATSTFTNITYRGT
Protocol: Inhibition of Vitronectin Binding
0.1-0.2 μg of αvβ3 was added per well. The plates were incubated overnight at 4° C. […] Following incubation the wells were aspirated completely and washed twice with 0.2 mL buffer A.
This solution is then diluted to the required final compound concentration.
The plates were incubated for 1 hr at room temperature. Following incubation the wells were aspirated completely and washed once with 0.2 mL of ice cold buffer A in a well-to-well fashion.

[2] = target: GPIIb-IIIa (fibrinogen receptor, αIIbβ3) (Homo sapiens, UniProt P05106+P08514); test: Competitive binding to GPIIb-IIIa with [3H]-SK&F-107260 (inhibition of RGD-mediated GPIIb-IIIa binding)
GPIIb-IIIa (fibrinogen receptor, αIIbβ3), sequence (P08514 32-887 limits assumed): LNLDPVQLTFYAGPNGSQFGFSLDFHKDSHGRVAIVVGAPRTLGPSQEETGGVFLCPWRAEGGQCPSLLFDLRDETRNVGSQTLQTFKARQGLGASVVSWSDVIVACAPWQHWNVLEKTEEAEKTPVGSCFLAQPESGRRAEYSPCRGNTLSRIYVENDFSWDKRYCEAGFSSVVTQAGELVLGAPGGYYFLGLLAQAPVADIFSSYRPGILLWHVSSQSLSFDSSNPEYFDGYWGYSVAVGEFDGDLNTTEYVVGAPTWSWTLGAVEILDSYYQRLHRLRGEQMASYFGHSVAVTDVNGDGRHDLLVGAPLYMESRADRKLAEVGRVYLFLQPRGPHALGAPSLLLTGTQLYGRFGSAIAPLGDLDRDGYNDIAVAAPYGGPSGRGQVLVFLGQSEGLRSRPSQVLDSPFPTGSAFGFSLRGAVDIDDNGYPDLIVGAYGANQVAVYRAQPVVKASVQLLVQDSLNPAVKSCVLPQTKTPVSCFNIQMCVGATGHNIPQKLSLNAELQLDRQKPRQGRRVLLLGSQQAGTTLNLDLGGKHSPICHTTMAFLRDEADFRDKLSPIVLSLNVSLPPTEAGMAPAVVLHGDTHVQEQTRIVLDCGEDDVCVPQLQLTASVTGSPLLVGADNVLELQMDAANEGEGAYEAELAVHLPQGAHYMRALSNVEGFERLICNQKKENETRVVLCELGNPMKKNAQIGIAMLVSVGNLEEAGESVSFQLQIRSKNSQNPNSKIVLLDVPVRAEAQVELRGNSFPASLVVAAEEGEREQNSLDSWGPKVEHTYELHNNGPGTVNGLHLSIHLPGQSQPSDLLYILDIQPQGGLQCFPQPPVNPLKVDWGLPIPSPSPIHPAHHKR
GPIIb-IIIa (fibrinogen receptor, αIIbβ3), sequence (P08514 891-1039 partner limits assumed): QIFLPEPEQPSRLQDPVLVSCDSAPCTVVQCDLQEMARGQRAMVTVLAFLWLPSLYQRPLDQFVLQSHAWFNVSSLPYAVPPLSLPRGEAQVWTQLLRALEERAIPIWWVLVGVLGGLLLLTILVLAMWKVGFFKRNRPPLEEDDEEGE
GPIIb-IIIa (fibrinogen receptor, αIIbβ3), sequence (P05106 27-788): as the sequence (P05106 27-788) above
Protocol: Ten units of outdated, washed human platelets (obtained from Red Cross) were lyzed by gentle stirring in 3% octylglucoside, 20 mM Tris-HCl, pH 7.4, 140 mM NaCl, 2 mM CaCl2 at 4° C. for 2 h. The lysate was centrifuged at 100,000 g for 1 h. The supernatant obtained was applied to a 5 mL lentil lectin sepharose 4B column (E.Y. Labs) preequilibrated with 20 mM Tris-HCl, pH 7.4, 100 mM NaCl, 2 mM CaCl2, 1% octylglucoside (buffer A). After 2 h incubation, the column was washed with 50 mL cold buffer A. The lectin-retained GPIIb-IIIa was eluted with buffer A containing 10% dextrose. All procedures were performed at 4° C.
A mixture of phosphatidylserine (70%) and phosphatidylcholine (30%) (Avanti Polar Lipids) were dried to the walls of a glass tube under a stream of nitrogen. […] The mixture was resuspended and sonicated in a bath sonicator for 5 min.
The binding assay was performed in a 96-well filtration plate assembly. (Millipore Corporation, Bedford, Mass.) using 0.22 um hydrophilic durapore membranes. The wells were precoated with 0.2 mL of 10 μg/mL polylysine (Sigma Chemical Co., St. Louis, Mo.) at room temperature for 1 h to block nonspecific binding. Various concentrations of unlabeled benzadiazapines were added to the wells in quadruplicate. […] The mixtures were incubated for 1 h at room temperature. […] Bound radioactivity remaining on the filters was counted in 1.5 mL Ready Solve (Beckman Instruments, Fullerton, Calif.) in a Beckman Liquid Scintillation Counter (Model LS6800), with 40% efficiency. […] All data points are the mean of quadruplicate determinations.
Competition binding data were analyzed by a nonlinear least-squares curve fitting procedure.

Ki ([1]; read-out: αVβ3) [µM] | ratio* (enhanced binding to vitronectin receptor vs fibrinogen receptor = αIIbβ3/αVβ3) [1] | Ki [2] [µM] | Structure (SMILES) | Ki ([1]; displacement of 5.0 nM [3H]-SK&F-107260 from human placenta or platelet αvβ3, table does not say whether IC50 or Ki, method derives Ki, read-out: αVβ3) [µM] | Ki [1] [µM]
3.9 | 9.6 | 37.5 | CN1Cc2cc(NC(=O)[C@@H](N)Cc3ccccc3)ccc2CC(CC(=O)O)C1=O (mixture of isomers) [Example 15, 8-[[2S-amino-3-phenylpropanoyl]amino]-2-methyl-3-oxo-2,3,4,5-tetrahydro-1H-2-benzazepine-4RS-acetic acid] |  | 
9.18 | 12 | 110 | Nc1ccc(NC(=O)c2ccc3c(c2)CN(CCc2ccccc2)C(=O)C(CC(=O)O)N3)cn1 (racemic) [Example 3, (±)-7-[[(6-amino-3-pyridinyl)amino]carbonyl]-3-oxo-4-(2-phenylethyl)-2,3,4,5-tetrahydro-1H-1,4-benzodiazepine-2-acetic acid] |  | 
15.3 | >3 | > 50 | CN1Cc2cc(NC(=O)c3ccccn3)ccc2CC(CC(=O)O)C1=O (racemic) [Example 5, (±)-2-methyl-3-oxo-8-[[2-(pyridinyl)carbonyl]amino]-2,3,4,5-tetrahydro-1H-2-benzazepine-4-acetic acid] |  | 
7.5 | 2.3 | 17.5 | CN1Cc2cc(NC(=O)OCc3ccccc3)ccc2CC(CC(=O)O)C1=O (racemic) [Example 6, (±)-8-[(benzyloxycarbonyl)amino]-2-methyl-3-oxo-2,3,4,5-tetrahydro-1H-2-benzazepine-4-acetic acid] |  | 
12.3 | >4 | > 50 | CN1Cc2cc(C(=O)Nc3cccc(C(N)=O)c3)ccc2NC(CC(=O)O)C1=O (racemic) [Example 8, (±)-7-[[[3-(aminocarbonyl)phenyl]amino]carbonyl]-4-methyl-3-oxo-2,3,4,5-tetrahydro-1H-1,4-benzodiazepine-2-acetic acid] |  | 
1.1 | >1.9 | 2.13 | CN1Cc2cc(C(=O)N3CCNCC3)ccc2NC(CC(=O)O)C1=O (racemic) [Example 10, (±)-4-methyl-3-oxo-7-[(1-piperazinyl)carbonyl]-2,3,4,5-tetrahydro-1H-1,4-benzodiazepine-2-acetic acid] |  | 
1.45 | 14 | 20.1 | CN1Cc2cc(C(=O)N3CCC(N4CCCCC4)CC3)ccc2NC(CC(=O)O)C1=O (racemic) [Example 11, (±)-4-methyl-3-oxo-7-[1-[4-(1-piperidinyl)piperidinyl]carbonyl]-2,3,4,5-tetrahydro-1H-1,4-benzodiazepine-2-acetic acid] |  | 
6.2 | >8 | > 50 | CN1Cc2cc(C(=O)N3CCN(c4ncccn4)CC3)ccc2NC(CC(=O)O)C1=O (racemic) [Example 14, (±)-4-methyl-3-oxo-7-[1-[4-(2-pyrmidinyl)piperazinyl]carbonyl]-2,3,4,5-tetrahydro-1H-1,4-benzodiazepine-2-acetic acid] |  | 
9.5 | 2.9 | 28 | CN(CC(O)c1ccccc1)C(=O)c1ccc2c(c1)CN(C)C(=O)C(CC(=O)O)C2 (racemic) [Example 16, (±)-8-[[[(2-hydroxy-2-phenyl)ethyl]methylamino]carbonyl]-2-methyl-3-oxo-2,3,4,5-tetrahydro-1H-2-benzazepine-4-acetic acid] |  | 
15.2 | >3 | > 50 | CN(CCO)C(=O)c1ccc2c(c1)CN(C)C(=O)C(CC(=O)O)N2 (racemic) [Example 17, (±)-7-[[[N-(2-hydroxyethyl)-N-methyl]amino]carbonyl]-4-methyl-3-oxo-2,3,4,5-tetrahydro-1H-1,4-benzodiazepine-2-acetic acid] |  | 
1.3 | 23 | 30 | CN1Cc2cc(NC(=O)CNc3ccccn3)ccc2CC(CC(=O)O)C1=O (racemic) [Example 18, (±)-8-[[(2-(2-pyridinylamino)acetyl]amino]-2-methyl-3-oxo-2,3,4,5-tetrahydro-1H-2-benzazepine-4-acetic acid] |  | 
1.55 | 29 | 45 | CN1Cc2cc(NC(=O)CN)ccc2CC(CC(=O)O)C1=O (racemic) [Example 20, (±)-8-[(2-aminoacetyl)amino]-2-methyl-3-oxo-2,3,4,5-tetrahydro-1h-2-benzazepine-4-acetic acid] |  | 
0.85 | 61 | 52 | CN1Cc2cc(NC(=O)CCN)ccc2CC(CC(=O)O)C1=O (racemic) [Example 21, (+/±)-8-[(3-aminopropanoyl)amino]-2-methyl-3-oxo-2,3,4,5-tetrahydro-1H-2-benzazepine-4-acetic acid] |  | 

Structure (SMILES) | Ki ([1]; read-out: αVβ3) [µM] | ratio* (enhanced binding to vitronectin receptor vs fibrinogen receptor = αIIbβ3/αVβ3) [1] | Ki [2] [µM] | Ki ([1]; displacement of 5.0 nM [3H]-SK&F-107260 from human placenta or platelet αvβ3, table does not say whether IC50 or Ki, method derives Ki, read-out: αVβ3) [µM] | Ki [1] [µM]
CN1Cc2cc(C(=O)N3CCN(c4ccccc4)CC3)ccc2NC(CC(=O)O)C1=O (racemic) [Example 9, (±)-4-methyl-3-oxo-7-[1-(4-phenylpiperazinyl)carbonyl]-2,3,4,5-tetrahydro-1H-1,4-benzodiazepine-2-acetic acid] |  | >11 | > 100 | 9.23 | 
CN1Cc2cc(C(=O)N3CCN(Cc4ccccc4)CC3)ccc2NC(CC(=O)O)C1=O (racemic) [Example 13, (±)-4-methyl-3-oxo-7-[1-[4-(phenylmethyl)piperazinyl]carbonyl]2,3,4,5-tetrahydro-1H-1,4-benzodiazepine-2-acetic acid] | 9.5 | 1.62 | 15.4 |  | 
CN1Cc2cc(C(=O)NCc3cccnc3)ccc2NC(CC(=O)O)C1=O (racemic) [Example 22, (±)-4-methyl-3-oxo-7-[[[(3-pyridinyl)methyl]amino]carbonyl]-2,3,4,5-tetrahydro-1H-1,4-benzodiazepine-2-acetic acid] |  | 3 | 27 |  | 9.02
